US10550073B2, “Benzamide derivative” (CSPC ZHONGQI PHARMACEUTICAL TECHNOLOGY (SHIJIAZHUANG) CO., …, priority 2015, dated 2020)
pIC50: −log10 of the molar value.

Assays:
TNF-α = test: In vitro cell experiment: LPS-stimulated TNF-α release in THP-1 cells (ELISA); format: cell-based; settings: Homo sapiens; TNF-α in supernatant of THP-1 cells, compound 2 h then LPS 10 μg/ml 2 h
Excerpt: I. In Vitro Cell Experiment
Cells: human monocytic leukemia THP-1 cells (obtained from the Shanghai Cell Bank of Chinese Academy of Sciences).
Lipopolysaccharides: from Escherichia coli O55: B5, L2880 (Sigma).
Kit: Human TNF-α Elisa MAX Deluxe Set, 430206 (Biolegend)

[1] = Pharmacokinetics experiment, oral administration to SD rats; format: in vivo; settings: Sprague-Dawley (SD), rat, plasma
Experimental: IV. Pharmacokinetics Experiment
Experimental Method: SD rats were orally administrated the compounds and the blood samples were taken from the eye orbit of the rat sat different time intervals after administration (0.25, 0.5, 1, 2, 4, 6, 8, 24, 48 h). The collected whole blood was anticoagulant by EDTA (Ethylene Diamine Tetraacetic Acid Sodium) and 3000 g of samples were centrifugated to obtain the rats' plasma samples, methanol or ethanol was used to precipitate proteins, the drug concentration of the rats' plasma samples was determined, the drug concentration-time curve was plotted to calculate the pharmacokinetic parameters. The pharmacokinetic behavior in rats after administration was described by non-compartmental models statistical moment parameter.
The pharmacokinetic experiments were carried out for the compounds.

p38a = p38a (Homo sapiens (Human), UniProt Q16539); test: Assay of p38 kinase activity (fluorescence, peptide substrate); format: biochemical; settings: 40 nM p38a, 100 μM ATP, 90 minutes
Chain of p38a (Q16539 whole entry): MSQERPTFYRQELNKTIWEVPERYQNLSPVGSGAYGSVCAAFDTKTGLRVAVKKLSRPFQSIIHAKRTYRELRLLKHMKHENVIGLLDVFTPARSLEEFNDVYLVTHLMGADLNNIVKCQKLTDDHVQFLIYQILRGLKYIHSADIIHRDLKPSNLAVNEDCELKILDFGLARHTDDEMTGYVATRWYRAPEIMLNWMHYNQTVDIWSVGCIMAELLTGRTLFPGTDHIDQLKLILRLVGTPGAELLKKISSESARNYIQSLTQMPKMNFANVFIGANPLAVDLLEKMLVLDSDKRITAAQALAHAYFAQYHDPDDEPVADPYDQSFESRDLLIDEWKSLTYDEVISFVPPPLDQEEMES
Experimental: II. Assay of p38 Kinase Activity
Experimental Method: 40 nM p38a was added into a reaction buffer, which include 20 mM HEPES (4-hydroxyethylpiperazine ethanesulfonic acid), 5 mM MgCl2 and 1 mM DTT (dithiothreitol) at pH 7.4. 40 μM phosphorylated peptide substrate was added, followed by different concentrations of drugs and 100 μM ATP (adenosine triphosphate), and reacted for 90 minutes in dark. […] The IC50 values of the compounds were obtained according to the fluorescence values.

CYP450, 2C9 enzymes = CYP450, 2C9 enzymes (Homo sapiens (Human), UniProt P11712); test: CYP450 enzyme inhibition test in human liver microsome; format: in vitro ADME; settings: CYP450 2C9, LC-MS/MS
Chain of CYP450, 2C9 enzymes (P11712 whole entry): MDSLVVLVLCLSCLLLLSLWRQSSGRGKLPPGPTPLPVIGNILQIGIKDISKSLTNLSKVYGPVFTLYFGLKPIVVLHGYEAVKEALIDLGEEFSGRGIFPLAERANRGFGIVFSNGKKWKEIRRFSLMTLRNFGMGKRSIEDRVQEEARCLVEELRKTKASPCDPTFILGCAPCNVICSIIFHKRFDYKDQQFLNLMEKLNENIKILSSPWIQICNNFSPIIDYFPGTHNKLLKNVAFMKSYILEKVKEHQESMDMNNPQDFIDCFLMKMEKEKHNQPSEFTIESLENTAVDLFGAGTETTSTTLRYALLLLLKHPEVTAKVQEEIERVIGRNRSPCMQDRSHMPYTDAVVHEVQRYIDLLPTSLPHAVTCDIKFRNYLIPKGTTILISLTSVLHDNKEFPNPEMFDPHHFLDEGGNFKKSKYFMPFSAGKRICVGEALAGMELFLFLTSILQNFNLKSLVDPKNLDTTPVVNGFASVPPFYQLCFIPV

Structure (SMILES) | pIC50 (TNF-α) | AUC(0-t) [1] | pIC50 (p38a) | pIC50 (CYP450, 2C9 enzymes)
Cc1c(F)cc(C(=O)NC2CC2)cc1-c1ccc(C(=O)NCC(C)(C)C)cn1 [Comparative example, 6-(5-(cyclopropylcarbamoyl)-3-fluoro-2-methylphenyl)-N-neopentylnicotinamide, reference compound] | 7.70 to 8.00 | 9630 ng·h/mL |  | 
Cc1c(F)cc(C(=O)NC2CC2)cc1-c1ccc(C(=O)N(C)CC(C)C)nn1 [Example 3] | 8.00 to 8.30 |  | > 8.30 | < 4.30
Cc1c(F)cc(C(=O)NC2CC2)cc1-c1ccc(C(=O)NC2CCCC2)nn1 [Example 4] | > 8.30 |  | > 8.30 | < 4.30
Cc1c(F)cc(C(=O)NC2CC2)cc1-c1ccc(C(=O)NC2CCCCC2)nn1 [Example 5, N-cyclohexyl-6-(5-(cyclopropylcarbamoyl)-3-fluoro-2-methylphenyl) pyridazin-3-carboxamide] | > 8.30 |  | > 8.30 | < 4.30
Cc1c(F)cc(C(=O)NC2CC2)cc1-c1ccc(C(=O)N(C)CC(C)C)nc1 [Example 16, 5-(5-(cyclopropylcarbamoyl)-3-fluoro-2-methylphenyl)-N-isobutyl-N-methylpyridin-2-formamide] | > 8.30 |  | > 8.30 | < 4.30
Cc1c(F)cc(C(=O)NC2CC2)cc1-c1ccc(C(=O)NCC(C)(C)C)c(N)c1 [Example 42, 3′-amino-N^3-cyclopropyl-5-fluoro-6-methyl-N^4′-neo pentyl-[1,1′-biphenyl]-3,4′ -dicarboxamide] | 8.00 to 8.30 |  |  | < 4.30
Cc1cc(-c2cc(C(=O)NC3CC3)cc(F)c2C)ccc1C(=O)NCC(C)C [Example 44, N^3-cyclopropyl-5-fluoro-N^4′-isobutyl-3′,6-dimethyl-[1,1′-biphenyl]-3,4′-dicarboxamide] | > 8.30 |  | 8.00 to 8.30 | < 4.30
Cc1c(F)cc(C(=O)NC2CC2)cc1-c1ccc(C(=O)NCC(C)C)nn1 [Example 57, 6-(5-(cyclopropylcarbamoyl)-3-fluoro-2-methylphenyl)-N-isobutylpyridazin-3-carboxamide] | > 8.30 | 22100 ng·h/mL | > 8.30 | < 4.30
CCC(C)NC(=O)c1ccc(-c2cc(C(=O)NC3CC3)cc(F)c2C)nn1 (stereo not shown) [Example 58, 6-(5-(cyclopropylcarbamoyl)-3-fluoro-2-methylphenyl)-N-(sec-butyl)pyridazin-3-carboxamide] | > 8.30 |  | > 8.30 | < 4.30
Cc1c(F)cc(C(=O)NC2CC2)cc1-c1ccc(C(=O)NCC(C)(C)C)nn1 [Example 59, 6-(5-(cyclopropylcarbamoyl)-3-fluoro-2-methylphenyl)-N-neopentylpyridazin-3-carboxamide] | > 8.30 | 11300 ng·h/mL | > 8.30 | < 4.30
Cc1c(F)cc(C(=O)NC2CC2)cc1-c1ccc(C(=O)NCC2CC2)nn1 [Example 61, 6-(5-(cyclopropylcarbamoyl)-3-fluoro-2-methylphenyl)-N-(cyclopropylmethyl) pyridazin-3-carboxamide] | > 8.30 | 12200 ng·h/mL | > 8.30 | < 4.30
